Experimental findings from patent US9718771B2, “Aniline derivative, pharmaceutical composition containing same, and use thereof” (Kissei Pharmaceutical Co., Ltd., priority 2014, dated 2017) are described below.

The target in the assay is human S1P1 (EDG-1) (Homo sapiens (Human), UniProt P21453). Put plainly: Confirmation test of antagonistic activity for human S1P1 receptor (35S-GTP binding, cell membranes). Format: biochemical. To be noted: inhibition of 35S-GTP binding induced by S1P1 receptor selective agonist; HEK293 membranes expressing human S1P1. Here is the method:
Confirmation Test of Antagonistic Activity for Human S1P1 Receptor
Test compounds were tested by reduction of functional binding activity of ^35S-GTP (guanosine 5′-O-[gamma-thio] triphosphate, PerkinElmer) to G protein using cell membranes expressing human S1P1 (EDG-1). S1P1-pcDNA3.1/V5-His-Topo vector was prepared by inserting cDNA (NM_001400) encoding human S1P1 into the expression vector, pcDNA3.1/V5-His-Topo (registered trademark) (Invitrogen). Next, the above S1P1-pcDNA3.1 vector was transfected into HEK293 cells by Lipofectamine2000 (registered trademark) (Invitrogen). The transfected cells were incubated with D-MEM liquid medium each containing 10% FBS (Fetal bovine serum), 100 U/mL penicillin, 100 μg/mL streptomycin and 1 mg/mL Geneticin (registered trademark) (Invitrogen) in an incubator under the condition of 5% CO2 at 37° C. and Geneticin (registered mark)-resistant cell line stably expressing S1P1 were obtained. The obtained stably S1P1-expressing cells were incubated with D-MEM liquid medium each containing 10% FBS and 0.5 mg/mL Geneticin (registered trademark) in an incubator under the condition of 5% CO2 at 37° C. The cells grown to confluence were harvested by a buffer solution containing 50 mM Tris, 2 mM EDTA (ethylmediaminetetraacetic acid) and 125 mM sodium chloride, and centrifuged at 1880×g, 4° C. for 10 minutes. After a supernatant was removed, a cell pellet was resuspended by the same buffer solution. For making cell membranes fragile, this cell suspension was frozen at −80° C. and then thawed. The cells were centrifuged at 1880×g, 4° C. for 10 minutes, and a supernatant was removed. The cell pellet was suspended by adding the same buffer solution and a fracture solution (10 mM sodium bicarbonate and 5 mM EDTA, pH 7.5) at a ratio of 2:1. The cells were fractured by subjecting the cell suspension to ultrasonication, and a cell membrane fraction was isolated by centrifugation at 1880×g, 4° C. for 10 minutes and ultracentrifugation of the supernatant at 80000×g, 4° C. for 30 minutes. A pellet of the cell membrane fraction was suspended by the fracture solution containing protease inhibitor cocktail (Roche) and stored at −80° C. until use. A protein concentration of the cell membrane fraction was determined using BCA Protein Assay Kit (Pierce) in accordance with an attached protocol.
Inhibitory activity evaluation was performed by multi-screen (registered trademark) HTS 96-well plate (Millipore) using the cell membrane fraction stably expressing S1P1 obtained by the above operation. 25 μL of assay solution (50 mM Tris, 100 mM sodium chloride, 5 mM magnesium chloride, 1 mM EDTA, 1 mM DTT (dithiothreitol), 10 μM GDP (guanosine diphosphate) and 0.5% BSA (bovine serum albumin), pH 7.4), 25 μL of test compounds solution diluted by assay solution and 25 μL of the membrane fraction (0.2 μg protein/μL) were added to each well, and the mixture was gently shaken at room temperature: for 30 minutes. Then, 25 μL of ^35S-GTP, and 25 μL of 50 nM S1P1 receptor selective agonist (1-[4-(4-phenyl-5-trifluoromethylthiophen-2-ylmethoxy)benzyl]azetidine-3-carboxylic acid, “J. Med. Chem.”, 2004, vol. 47, pp. 6662-6665, compound 18) were added to each well, respectively, and it was reacted at room temperature for 60 minutes. After the reaction, a reaction solution of each well was suction-filtered. After suction filtration, ice-colded wash solution (50 mM Tris, 100 mM sodium chloride, […] and 1 mM EDTA, pH 7.4) was added to each well, and moreover filters were washed by suction filtration. This wash procedure was performed three times. A bottom of the plate containing the filters was dried at 60° C. After drying, 30 μL of MicroScinti-40 (PerkinElmer) was added to each well, and the radioactivity adsorbed on the filter was determined by TopCount NXT (registered trademark) (PerkinElmer) after shaking for 30 minutes at room temperature. […]

Usually IC50 stands for the point on the concentration scale where inhibition reaches its midpoint. A high value points to lower potency.

Sequence of human S1P1 (EDG-1) (P21453 whole entry): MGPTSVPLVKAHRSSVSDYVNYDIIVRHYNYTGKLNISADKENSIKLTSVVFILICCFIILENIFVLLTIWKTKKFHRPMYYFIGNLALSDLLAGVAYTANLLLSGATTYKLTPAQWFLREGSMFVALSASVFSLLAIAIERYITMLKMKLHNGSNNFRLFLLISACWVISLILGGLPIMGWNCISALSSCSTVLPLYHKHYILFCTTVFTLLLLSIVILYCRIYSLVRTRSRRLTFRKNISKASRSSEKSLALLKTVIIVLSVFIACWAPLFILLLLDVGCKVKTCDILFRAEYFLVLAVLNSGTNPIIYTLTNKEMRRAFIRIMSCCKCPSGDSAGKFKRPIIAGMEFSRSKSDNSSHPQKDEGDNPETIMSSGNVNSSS

The molecule `CCN(c1ccc(Cl)c(C)c1)C(C)c1ccc(C)c(CN2CC(C(=O)O)C2)c1` (centres unmarked) [Compound 2-6, 1-(5-{1-[(4-Chloro-3-methylphenyl)(ethyl)amino]ethyl}-2-methylbenzyl)azetidine-3-carboxylic acid] displayed an IC50 of 1 nM. On to `CCN(c1ccc(Cl)c(C(F)(F)F)c1)C(C)c1ccc(C)c(CN2CC(C(=O)O)C2)c1` (centres unmarked) [Compound 2-7, 1-(5-{1-[(4-Chloro-3-trifluoromethylphenyl)(ethyl)amino]ethyl}-2-methylbenzyl)-azetidine-3-carboxylic acid], for which the IC50 stood at 1.2 nM.
